Like-named read-outs stand apart in the source and are kept apart here.
Assays:
[1] = Cytotoxicity on BV2 cells, CCK8 method; format: cell-based; settings: mouse, BV2 microglial cells, CCK8, 24 h treatment, 5-200 μM, read-out: Cytotoxic activities IC50
Method: The cytotoxicity assay was performed with a modified CCK8 method. First, BV2 microglial cells were cultured with 96-well microplates (10^4 cells/well in […] medium) for 24 h. Then, the cells were treated with different concentrations (5, 10, 30, 50, 100, 200 μM) of compounds. After the cells were incubated for 24 h, added 10 μL CCK8 solution to each well and incubated for 2 h in a 5% CO2 humidifier at 37 ℃. The absorbance was recorded at 450 nm with a microplate reader (BioTek Company, Winooski, VT, USA), repeating three times, and its IC50 value was calculated.

[2] = system: NO production in LPS-stimulated BV2 cells; experiment: Inhibition of NO production in LPS-stimulated BV2 cells (Griess reaction); format: cell-based; settings: read-out: Inhibitory effects on NO in LPS-induced BV-2, IC50
Method: BV2 microglial cells were cultured in DMEM containing 10% fetal bovine serum, 100 IU/mL penicillin, and 100 μg/mL streptomycin at 37 ℃ with 5% CO2. Then, the cells were placed in 96-well microplates and treated with different compounds at 1–8 concentrations (5, 10, 30, 50, 100, 200 μM) for 1 h. Next, the cells were treated with 1 μg/mL LPS for 24 h to detect the NO (nitric oxide) levels in culture supernatants. After the Griess reaction (incubated at 37 ℃ with 5% CO2 for 0.5 h), the absorbance of cells was measured with a microplate reader (BioTek Company, Winooski, VT, USA) at […], repeated three times, and its IC50 value was calculated.

[3] = Mus musculus, BV-2, compound 1 h then 1 μg/mL LPS 24 h

SMILES	IC50 [2, 3]	IC50 ([2]; compound 1 h then 1 μg/mL LPS 24 h)	IC50 at 24 h [1]
CCC(C)C(=O)O[C@H]1[C@@H](OC(=O)C(C)CC)[C@H](OC(C)=O)[C@@H](O)[C@H](OC(=O)C(C)CC)[C@H]1OC(C)=O (relative stereo) [Compound 3, myoinositol-1,4-acetate-2,3,5-(2-methylbutyrate)]	> 100 µM	–	> 100 µM
CCC(C)C(=O)O[C@@H]1[C@@H](OC(=O)C(C)CC)[C@H](O)[C@@H](O)[C@H](O)[C@@H]1OC(=O)C(C)CC (relative stereo) [Compound 8, myoinositol-2,3,6-(2-methylbutyrate)]	31 ± 0.92 µM	–	> 100 µM
CCC(C)C(=O)O[C@@H]1[C@H](OC(=O)C(C)CC)[C@@H](O)[C@H](O)[C@@H](O)[C@@H]1OC(C)=O (relative stereo) [Compound 6, myoinositol-2,3-(2-methylbutyrate)-4-acetate]	23.3 ± 0.74 µM	–	> 100 µM
CNC(=N)NCCC[C@H](N)C(=O)O [NMMA, reference compound]	–	1.67 ± 0.24 µM	–
CCC(C)C(=O)O[C@@H]1[C@@H](O)[C@H](O)[C@H](OC(=O)C(C)CC)[C@H](OC(=O)C(C)CC)[C@H]1O (relative stereo) [Compound 5, myoinositol-2,3,6-(2-methylbutyrate)]	11.2 ± 0.14 µM	–	> 100 µM
CCC(C)C(=O)O[C@@H]1[C@H](O)[C@@H](O)[C@H](O)[C@@H](OC(=O)C(C)CC)[C@@H]1OC(C)=O (relative stereo) [Compound 7, myoinositol-1,3-(2-methylbutyrate)-2-acetate]	14.5 ± 1.22 µM	–	> 100 µM

Continued, in another order:

IC50 [2, 3]	IC50 ([2]; compound 1 h then 1 μg/mL LPS 24 h)	SMILES	IC50 at 24 h [1]
> 100 µM	–	CCC(C)C(=O)O[C@H]1[C@@H](OC(=O)C(C)CC)[C@H](OC(=O)C(C)CC)[C@@H](O)[C@H](OC(=O)C(C)C)[C@H]1OC(C)=O (relative stereo) [Compound 4, myoinositol-1,2,3-(2-methylbutyrate)-4-acetate-5-isobutyryloxy]	> 100 µM
31.7 ± 2.71 µM	–	CCC(C)C(=O)O[C@@H]1[C@H](OC(=O)C(C)C)[C@@H](OC(=O)C(C)C)[C@H](O)[C@@H](O)[C@@H]1OC(C)=O (relative stereo) [Compound 2, myoinositol-1,2-isobutyryloxy-3-(2-methylbutyrate)-4-acetate]	> 100 µM
24.3 ± 1.82 µM	–	CCC(C)C(=O)O[C@@H]1[C@H](OC(C)=O)[C@@H](OC(=O)C(C)CC)[C@H](O)[C@@H](O)[C@@H]1OC(=O)C(C)C (relative stereo) [Compound 1, myoinositol-1,3-(2-methylbutyrate)-2-acetate-4-isobutyryloxy]	> 100 µM

Source: article PMC9503535, “Inositol Derivatives with Anti-Inflammatory Activity from Leaves of Solanum capsicoides Allioni” (Molecules, 2022)
